# Laboratory results taken from BindingDB's records for doi:10.1016/j.bmcl.2019.05.029 (Novira Therapeutics, 2019).
# Assay: Binding affinity to capsid protein in Hepatitis B virus infected in human HepG2.2.15 cells assessed as inhibition of HBV DNA replication incubated for 3 days followed by replacement of fresh medium containing compound and measured after 3 days by chemiluminescent assay
row,SMILES,EC50 [nM]
1,O=C(Nc1ccc(F)c(Cl)c1)c1ccc(F)c(S(=O)(=O)N2CCSCC(O)C2)c1 (centres undefined),170
2,CC1(O)COCCN(S(=O)(=O)c2cc(C(=O)Nc3ccc(F)c(Cl)c3)ccc2F)C1 (centres undefined),100
3,O=C(Nc1ccc(F)c(Cl)c1)c1ccc(F)c(S(=O)(=O)N2CCCCCC(O)C2)c1 (centres undefined),60
4,CC(O)C1CCCCN(S(=O)(=O)c2cc(C(=O)Nc3ccc(F)c(Cl)c3)ccc2F)C1 (centres undefined),140
5,O=C(Nc1ccc(F)c(Cl)c1)c1ccc(F)c(S(=O)(=O)N2CCCC(O)CC2)c1 (centres undefined),140
6,O=C(Nc1ccc(F)c(Cl)c1)c1ccc(F)c(S(=O)(=O)N2CCCCC(CO)C2)c1 (centres undefined),140
7,CN1CCN(S(=O)(=O)c2cc(C(=O)Nc3ccc(F)c(Cl)c3)ccc2F)CC(O)C1 (centres undefined),470
8,O=C(Nc1ccc(F)c(Cl)c1)c1ccc(F)c(S(=O)(=O)N2CCOC[C@H](O)C2)c1,63
9,CN1CCCN(S(=O)(=O)c2cc(C(=O)Nc3ccc(F)c(Cl)c3)ccc2F)CC1=O,220
10,O=C(Nc1ccc(F)c(Cl)c1)c1ccc(F)c(S(=O)(=O)N2CCOCC(F)C2)c1 (centres undefined),80
11,O=C(Nc1ccc(F)c(Cl)c1)c1ccc(F)c(S(=O)(=O)N2CCCCC(O)CC2)c1 (centres undefined),52
12,O=C(Nc1ccc(F)c(Cl)c1)c1ccc(F)c(S(=O)(=O)N2CCOC[C@@H](O)C2)c1,140
13,O=C(Nc1ccc(F)c(Cl)c1)c1ccc(F)c(S(=O)(=O)N2CCCCC(O)C2)c1 (centres undefined),170
14,CC1(O)CCCN(S(=O)(=O)c2cc(C(=O)Nc3ccc(F)c(Cl)c3)ccc2F)CC1 (centres undefined),110
15,O=C(Nc1ccc(F)c(Cl)c1)c1ccc(F)c(S(=O)(=O)N2CCCCC(F)(F)C2)c1,140
16,O=C(Nc1ccc(F)c(Cl)c1)c1ccc(F)c(S(=O)(=O)N2CCOCC(O)C2)c1 (centres undefined),100
17,O=C(Nc1ccc(F)c(Cl)c1)c1ccc(F)c(S(=O)(=O)N2CCCCCCC2O)c1 (centres undefined),120
18,COC1COCCN(S(=O)(=O)c2cc(C(=O)Nc3ccc(F)c(Cl)c3)ccc2F)C1 (centres undefined),130
19,CC1(O)CCCCN(S(=O)(=O)c2cc(C(=O)Nc3ccc(F)c(Cl)c3)ccc2F)C1 (centres undefined),120
